Columns and labels:
[1] = test system: Cu/Zn-type SODs and SOD Cu Chaperone genes; assay: Transcriptomics with Arabidopsis thaliana DNA chip on root total RNA; assay type: in vivo; conditions: root of Arabidopsis thaliana grown on 2% sugar-containing MS medium with sugar alcohol at final concentration 0-2%
Excerpt: (§1) The DNA microarray is a partial sequence of DNA arranged and fixed in a high-density manner on a slide glass which is divided into from several tens of thousands to hundreds of thousands. By using this, an expressed gene can be detected. Arabidopsis thaliana and a rat were used as model organisms. These organisms each was cultivated or bred with an arbitrary test substance and then an mRNA extracted from the cells of the cultivated or bred organism was hybridized with a target which is changed into cDNA with a reverse transcriptase. By carrying out this procedure, gene information expressed in the model organism was detected comprehensively, this procedure is so-called a transcriptomics. Furthermore, separation and purification of the protein of the ROS-scavenging enzyme in the model organisms' cells and determination of the enzyme activity were carried out, whereby the results obtained from the transcriptomics were directly verified. RNA was extracted from a root of the Arabidopsis thaliana grown by a culture medium which contains a MS culture medium composition having sucrose at a concentration of 2% and a series of test substances at a final concentration of 0-2% each. This extracted specimen was supplied to the DNA microarray. In addition, RNA was extracted from the hepatocytes of SD rat grown with feed which contains a control feed having cornstarch as the main ingredient and a sugar alcohol as a series of test substances at a final concentration of 0-10%. This extracted specimen was supplied to the DNA microarray in the same way as described above. The protein of the ROS-scavenging enzyme in the model organism cells was separated and purified using AKT Aexplorer (FPLC). SOD activity measurements were carried out according to a standard protocol using SOD Assay Kit-WST. Total RNA was extracted from the root of Arabidopsis thaliana grown by a culture medium containing a 2% sugar-containing MS culture medium composition and a series of sugar alcohols at a final concentration of 0-2% each. Transcriptomics was conducted using a Arabidopsis thaliana DNA chip (the number of loading genes: 30,480 genes, the number of probe/gene: 6, probe length: 60mer) of GeneFrontier Corporation.

SOD [2] = assay: SOD activity of Arabidopsis thaliana root extract (SOD Assay Kit-WST); assay type: in vivo; conditions: root extract of Arabidopsis thaliana grown with sugar alcohol 0-2% (Example 1)
Excerpt: RNA was extracted from a root of the Arabidopsis thaliana grown by a culture medium which contains a MS culture medium composition having sucrose at a concentration of 2% and a series of test substances at a final concentration of 0-2% each. This extracted specimen was supplied to the DNA microarray. In addition, RNA was extracted from the hepatocytes of SD rat grown with feed which contains a control feed having cornstarch as the main ingredient and a sugar alcohol as a series of test substances at a final concentration of 0-10%. This extracted specimen was supplied to the DNA microarray in the same way as described above. The protein of the ROS-scavenging enzyme in the model organism cells was separated and purified using AKT Aexplorer (FPLC). SOD activity measurements were carried out according to a standard protocol using SOD Assay Kit-WST. The roots of the Arabidopsis thaliana grown in Example 1 were crushed and water-extracted and then freeze-dried. Then each of the dried extract was dissolved in the buffer solution of 0.1M calcium phosphate to obtain a specimen. The SOD activity was determined according to a standard protocol using SOD Assay Kit-WST (Dojin Kagaku Kenkyu-Sho). […] In particular, the SOD activity of the erythritol-added group increased by 2-5 times.

[3] = test system: Cu/Zn-type SODs and SOD Cu Chaperone genes; assay: Transcriptomics with rat DNA chip on hepatocyte total RNA of fed rats; assay type: in vivo; conditions: hepatocytes of SD rats fed thirty days with feed containing sugar alcohol at final concentration 0-10%
Excerpt: as §1, with “Kit-WST. Rats were fed for thirty days with a control diet containing 552.5 parts by weight of cornstarch, 250 parts by weight of casein, 35 parts by weight of mineral, 10 parts by weight of vitamin mixture, 2.5 parts by weight of choline bitartrate, 50 parts by weight of corn oil and 100 parts by weight of powdered cellulose, or feedstuffs containing the same composition as described in the control diet except that a portion of the powdered cellulose was replaced with the series of sugar alcohols so that the feedstuffs contain sugar alcohols at the final concentration of 0-10% each. The livers were taken out of the killed SD system rats and the total” for “Kit-WST. Total”, “the hepatocytes,” for “the root of Arabidopsis thaliana grown by a culture medium containing a 2% sugar-containing MS culture medium composition”, “and transcriptomics” for “and a series of sugar alcohols at a final concentration of 0-2% each. Transcriptomics”, “a rat” for “a Arabidopsis thaliana”, “genes: 21,205,” for “genes: 30,480 genes,”, “of probes per gene: 9,” for “of probe/gene: 6,”

SOD [4] = assay: SOD activity of rat liver extract (SOD Assay Kit-WST); assay type: in vivo, SD rat; conditions: liver extract of rats fed thirty days with sugar alcohol 0-10% in feed (Example 2)
Excerpt: RNA was extracted from a root of the Arabidopsis thaliana grown by a culture medium which contains a MS culture medium composition having sucrose at a concentration of 2% and a series of test substances at a final concentration of 0-2% each. This extracted specimen was supplied to the DNA microarray. In addition, RNA was extracted from the hepatocytes of SD rat grown with feed which contains a control feed having cornstarch as the main ingredient and a sugar alcohol as a series of test substances at a final concentration of 0-10%. This extracted specimen was supplied to the DNA microarray in the same way as described above. The protein of the ROS-scavenging enzyme in the model organism cells was separated and purified using AKT Aexplorer (FPLC). SOD activity measurements were carried out according to a standard protocol using SOD Assay Kit-WST. The livers of the rats fed in Example 2 each was crushed and then extracted with normal saline solution, and then freeze-dried. SOD activity was determined according to the same way as described in Example 3. […] In particular, the SOD activity of the erythritol-added group increased by 2 times.

Row | Compound | expression of Cu/Zn-type SODs and SOD Cu Chaperone genes [1] | SOD activity compared to the control group (SOD [2]) | expression of Cu/Zn-type SODs and SOD Cu Chaperone genes [3] | SOD activity compared to the control group (SOD [4]) | increase of SOD activity compared to the control group (SOD [2]) | increase of SOD activity compared to the control group (SOD [4]) [times]
1 | OC[C@@H](O)[C@H](O)[C@@H](O)CO [xylitol] | up-regulated | promotion of the SOD activity was seen | up-regulated | promotion of the SOD activity was seen |  | 
2 | OC[C@@H](O)[C@@H](O)[C@H](O)[C@@H](O)CO [sorbitol] | up-regulated | promotion of the SOD activity was seen | up-regulated | promotion of the SOD activity was seen |  | 
3 | OC[C@@H](O)[C@@H](O)CO [erythritol] | up-regulated | promotion of the SOD activity was seen | up-regulated | promotion of the SOD activity was seen | 2-5 times | 2
4 | OC[C@@H](O)[C@@H](O)[C@H](O)[C@H](O)CO [mannitol] | up-regulated | promotion of the SOD activity was seen | up-regulated | promotion of the SOD activity was seen |  | 

From US20100037353A1, “METHOD FOR IMPROVING ACTIVITY OF REACTIVE OXYGEN SPECIES SCAVENGING ENZYMES” (B Food Science Co., Ltd., priority 2007, published 2010)
